Source: patent EP0845478B1, “Reductive alkylation of glycopeptide antibiotics” (ELI LILLY AND COMPANY, priority 1996, dated 1998)
Entries after “also recorded” stand apart in the source; their conditions may differ.

Legend:
[1] = Solubility of the starting glycopeptide antibiotic (nucleus) in methanol in the presence of the copper salt, with pH; type: physicochemical; conditions: stirred 15 min; for pH: pH after addition of glycopeptide nucleus (0.26 mmol) to copper salt in 50 mL methanol; for nucleus solubility in presence of salt: Glycopeptide nucleus (0.55 g, 0.26 mmol) added to copper salt (0.165 mmol) in 50 mL methanol
Method: (§1) The same copper salts were further evaluated for their solubility in methanol and for the solubility of the starting glycopeptide antibiotic in their presence. The procedure was as follows: the copper salt (0.165 mmol) was added to 50 mL methanol and stirred at ambient temperature for 15 min. Solubility data was recorded as well as the pH. […] Solubility and pH data was recorded.

[2] = Solubility of copper salts in methanol, with pH; type: physicochemical; conditions: for pH: pH of copper salt (0.165 mmol) in 50 mL methanol after 15 min stirring, before nucleus is added; for Salt Solubility in MeOH: copper salt (0.165 mmol) in 50 mL methanol, stirred at ambient temperature for 15 min
Method: as §1

Row | pH [1] | pH [2] | nucleus solubility in presence of salt [1] | Salt Solubility in MeOH [2] | SMILES
1 | ~6.7 | 6.5 |  |  | CCCCC(CC)C(=O)[O-].CCCCC(CC)C(=O)[O-].[Cu+2] (centres unmarked) [Cu(2-ethylhexanoate)2]
2 | 6.2 | 4.4 | soluble, clear purple | soluble, clear lite blue | O=C([O-])C(F)(F)F.O=C([O-])C(F)(F)F.[Cu+2] [Cu(O2CCF3)2]
3 | ~6.7 | 6.5 |  |  | CC(=O)[O-].CC(=O)[O-].[Cu+2] [Cu(OAc)2]
4 | 5.9 | 2.8 | soluble, clear purple | soluble, clear yellow | [Br][Cu][Br] [CuBr2]
5 | 6.6 | 3.2 | slightly, cloudy purple | soluble, clear colorless | [Cl][Cu][Cl] [CuCl2]
6 | 6.2 | 3.7 | slightly, cloudy purple | soluble, clear colorless | O.O.O.O.O.O=S(=O)([O-])[O-].[Cu+2] [CuSO4·5H2O]

Row | SMILES | pH [1] | pH [2] | nucleus solubility in presence of salt [1] | Salt Solubility in MeOH [2]
7 | [Cu+2].[OH-].[OH-] [Cu(OH)2] | 7.0 | 6.2 | slightly, cloudy lite blue | nearly insoluble; also recorded: low, cloudy lite blue soln
8 | O=C([O-])CCCC1CCCCC1.O=C([O-])CCCC1CCCCC1.[Cu+2] [Cu(cyclohexanebutyrate)2] | ~6.7 | 6.0 | complete dissolution; also recorded: soluble, clear purple | faint cloudiness, lite blue-green
9 | [F][Cu][F] [CuF2] | 7.0 | 5.9 | slightly, cloudy pink | nearly insoluble; also recorded: low, cloudy white soln
